The values below come from patent publication US10213429B2, “Imidazo-pyrazinyl derivatives useful as soluble guanylate cyclase activators” (Merck Sharp & Dohme Corp., priority 2015, dated 2019).

Structures are written as SMILES.

For this assay, the target named is T1, sGC α1/β1 heterodimer (Homo sapiens, UniProt Q02108+Q02153).
T1 construct: expressed in transfected cells; host or cells: CHO-K1 (clone #7, CHO-K1/sGC)
T1 sequence (Q02108 1-690): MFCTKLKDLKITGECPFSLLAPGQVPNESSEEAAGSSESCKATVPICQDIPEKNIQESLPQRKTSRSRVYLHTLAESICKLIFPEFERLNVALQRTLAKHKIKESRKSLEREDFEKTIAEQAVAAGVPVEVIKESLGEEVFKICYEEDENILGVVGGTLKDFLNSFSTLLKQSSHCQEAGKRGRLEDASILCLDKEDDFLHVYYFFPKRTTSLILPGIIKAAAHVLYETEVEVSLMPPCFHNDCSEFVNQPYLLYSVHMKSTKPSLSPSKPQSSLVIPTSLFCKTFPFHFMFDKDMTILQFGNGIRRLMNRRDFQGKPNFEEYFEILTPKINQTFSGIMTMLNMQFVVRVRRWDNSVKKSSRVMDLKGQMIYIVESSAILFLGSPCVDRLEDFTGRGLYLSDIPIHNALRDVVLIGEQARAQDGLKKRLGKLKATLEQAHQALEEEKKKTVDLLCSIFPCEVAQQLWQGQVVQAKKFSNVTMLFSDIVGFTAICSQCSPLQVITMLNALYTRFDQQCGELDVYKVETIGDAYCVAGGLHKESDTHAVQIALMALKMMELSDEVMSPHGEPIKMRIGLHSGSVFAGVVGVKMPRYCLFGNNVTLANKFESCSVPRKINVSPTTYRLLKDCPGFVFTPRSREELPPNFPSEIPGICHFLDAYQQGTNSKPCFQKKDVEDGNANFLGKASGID
T1 sequence (Q02153 1-619): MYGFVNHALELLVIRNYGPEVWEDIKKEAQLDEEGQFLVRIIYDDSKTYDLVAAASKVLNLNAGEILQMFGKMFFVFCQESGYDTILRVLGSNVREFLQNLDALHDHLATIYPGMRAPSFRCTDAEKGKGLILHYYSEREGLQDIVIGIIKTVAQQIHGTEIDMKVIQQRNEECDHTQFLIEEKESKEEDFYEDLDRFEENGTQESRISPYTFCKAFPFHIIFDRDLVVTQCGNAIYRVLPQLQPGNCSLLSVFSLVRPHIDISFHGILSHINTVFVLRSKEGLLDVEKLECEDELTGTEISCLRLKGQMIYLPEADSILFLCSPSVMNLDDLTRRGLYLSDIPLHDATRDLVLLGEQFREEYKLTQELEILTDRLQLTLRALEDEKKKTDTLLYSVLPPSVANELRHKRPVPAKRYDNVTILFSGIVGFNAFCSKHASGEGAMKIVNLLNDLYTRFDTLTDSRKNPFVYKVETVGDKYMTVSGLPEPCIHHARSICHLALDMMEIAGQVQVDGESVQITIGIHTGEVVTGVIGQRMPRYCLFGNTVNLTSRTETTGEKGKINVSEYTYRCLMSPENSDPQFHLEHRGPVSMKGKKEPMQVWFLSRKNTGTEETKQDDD
Kind of assay: Cell-Based sGC Functional Assay (CASA Assay), cGMP by HTRF in CHO-K1/sGC cells. The settings on record: for Emax: CHO-K1, percent activation relative to maximum cGMP production of Compound A (= 100%), read-out: % Act.; for EC50: cGMP production, 1 hr at 37° C., 4P fit, presence or absence of 1 μM DETA-NO not given, read-out: IP (nM) (inflection point); for % Act.: percent activation relative to maximum cGMP production of Compound A (= 100%). The essentials: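 CHO-K1 cells stably expressing human sGC α1/β1, in EBSS buffer with 5 mM MgCl2, 10 mM HEPES, 0.05% BSA and 0.5 mM IBMX, incubated with compound (2.5% DMSO) ± 1 μM DETA-NO, 1 h, 37 °C. Intracellular cGMP read by HTRF; activity as % of reference activator maximum, IP from 4-parameter fit.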
(TR-FRET usually uses a lanthanide donor and a delayed reading to cut background.)

As for `O=C1Nc2nc(-c3cn4ccnc4c(CCC(F)(F)C(F)(F)F)n3)nc(O)c2C1(c1ccc(Cl)cn1)C1CC1` (centres unmarked) [Example 8A, 5-(5-chloropyridin-2-yl)-5-cyclopropyl-4-hydroxy-2-(8-(3,3,4,4,4-pentafluorobutyl)imidazo[1,2-a]pyrazin-6-yl)-5H-pyrrolo[2,3-d]pyrimidin-6(7H)-one], the Emax was found to be 142% and the EC50 was found to be 1180 nM.
`CC1(C(=O)NC2CC2)C(=O)Nc2nc(-c3cn4ccnc4c(Cc4ccccc4F)n3)ncc21` (single isomer, unassigned) [Example 69B, N-cyclopropyl-2-(8-(2-fluorobenzyl)imidazo[1,2-a]pyrazin-6-yl)-5-methyl-6-oxo-6,7-dihydro-5H-pyrrolo[2,3-d]pyrimidine-5-carboxamide]: the EC50 is 226 nM and the “% Act.” value was found to be 118%.
Take `CCCCc1nc(-c2ncc3c(n2)NC(=O)C3(c2ccc(F)c(F)c2)C2CC2)cn2ccnc12` (centres unmarked) [Example 43A, 2-(8-butylimidazo[1,2-a]pyrazin-6-yl)-5-cyclopropyl-5-(3,4-difluorophenyl)-5H-pyrrolo[2,3-d]pyrimidin-6(7H)-one]: the Emax was determined as 112% and the EC50 is 7 nM.
For `CCCCc1nc(-c2nc(O)c3c(n2)NC(=O)C3(c2ccc(Cl)cc2F)C2CC2)cn2ccnc12` (centres unmarked) [Example 33A, 2-(8-butylimidazo[1,2-a]pyrazin-6-yl)-5-(4-chloro-2-fluorophenyl)-5-cyclopropyl-4-hydroxy-5H-pyrrolo[2,3-d]pyrimidin-6(7H)-one] the same measures were 111% and 107 nM.
Consider `CC1(C(=O)NC2CC2)C(=O)Nc2nc(-c3cn4ccnc4c(Cc4ccccc4F)n3)ncc21` (single isomer, unassigned) [Example 69A, N-cyclopropyl-2-(8-(2-fluorobenzyl)imidazo[1,2-a]pyrazin-6-yl)-5-methyl-6-oxo-6,7-dihydro-5H-pyrrolo[2,3-d]pyrimidine-5-carboxamide], for which the EC50 came to 38 nM and the “% Act.” value turned out to be 179%.
Turning to `CC1(c2ccc(F)cc2)C(=O)Nc2nc(-c3cn4ccnc4c(CCC(F)(F)C(F)(F)F)n3)nc(C3CC3)c21` (centres unmarked) [Example 75A, 4-cyclopropyl-5-(4-fluorophenyl)-5-methyl-2-(8-(3,3,4,4,4-pentafluorobutyl)imidazo [1,2-a]pyrazin-6-yl)-5H-pyrrolo[2,3-d]pyrimidin-6(7H)-one], the Emax amounted to 166% and the EC50 was 72 nM.
On to `COCCOc1nc(-c2cn3ccnc3c(CCC(F)(F)C(F)(F)F)n2)nc2c1C(C)(c1ccc(F)cc1)C(=O)N2` (centres unmarked) [Example 88A, 5-(4-Fluorophenyl)-4-(2-methoxyethoxy)-5-methyl-2-(8-(3,3,4,4,4-pentafluorobutyl)imidazo[1,2-a]pyrazin-6-yl)-5H-pyrrolo[2,3-d]pyrimidin-6(7H)-one], for which the Emax was 100% and the EC50 was 38 nM.
For `CC1(c2ccc(Cl)c(F)c2)C(=O)Nc2nc(-c3cn4ccnc4c(CCC(F)(F)F)n3)nc(O)c21` (centres unmarked) [Example 13B, 5-(4-chloro-3-fluorophenyl)-4-hydroxy-5-methyl-2-(8-(3,3,3-trifluoropropyl)imidazo[1,2-a]pyrazin-6-yl)-5H-pyrrolo[2,3-d]pyrimidin-6(7H)-one] the same measures were 70% and 183 nM.
The like results for `CC1(c2ccc(F)cc2)C(=O)Nc2nc(-c3cn4ccnc4c(CCC(F)(F)C(F)(F)F)n3)nc(C#N)c21` (centres unmarked) [Example 85A, 5-(4-Fluorophenyl)-5-methyl-6-oxo-2-(8-(3,3,4,4,4-pentafluorobutyl)imidazo[1,2-a]pyrazin-6-yl)-6,7-dihydro-5H-pyrrolo[2,3-d]pyrimidine-4-carbonitrile] were, in that order, 97% and 257 nM.
For `CC(C)C1(C)C(=O)Nc2nc(-c3cn4ccnc4c(Cc4ccccc4)n3)ncc21` (single isomer, unassigned) [Example 95A, 2-(8-Benzylimidazo[1,2-a]pyrazin-6-yl)-5-isopropyl-5-methyl-5H-pyrrolo[2,3-d]pyrimidin-6(7H)-one] the same measures were 113% and 36 nM.
